# ChEMBL document CHEMBL3507680, “University of Dundee, Gates Library screen for HepG2 cell viability”
# Assay: Human HepG2 cell viability assay in 384 well format
# Format: toxicity, cell-based
# Set-up: dose 125 nL, time 70.5 hour; concentration not given beside the values
# Details: HepG2 cells, read-out: Inhibition
row,Structure (SMILES),cytotoxicity at 70.5 h [%]
1,Cc1cccc(N2CCN(C(=O)Cc3ccccc3O)C(C)C2)n1 (stereo not drawn),-1.34
2,Cc1ccc(C(C(=O)N(C)CCc2cn[nH]c2)N(C)C)cc1 (stereo not drawn),-8.45
3,c1c[nH]c(CN2CCCC(Cc3ccc(NC4CCCC4)nn3)C2)n1 (stereo not drawn),7.73
4,CC(CC(=O)c1ccccc1)NC(=O)c1ccon1 (stereo not drawn),-5.06
5,CC(=O)NCCNC(=O)c1sc(-c2ccc(C)cc2C)nc1C,0.801
6,CCC[C@H]1CN(Cc2cncn2C)C[C@@H]1NC(=O)C1(COC)CCC1,-9.83
7,CC(C)C(=O)N1CCCC(c2ncncc2-c2ccncc2)C1 (stereo not drawn),13.6
8,COCC(=O)N1CCN(C(=O)Cc2cccs2)[C@H]2CS(=O)(=O)C[C@H]21,-5.46
9,Cc1nc(C2(O)CCCNCC2)sc1CCOc1ccc(F)cc1 (stereo not drawn),16.3
10,CCN(CC)CCNC(=O)c1cnc(C(C)(C)C)s1,-6.77
11,CN(CCO)c1nc(-c2ccccn2)nc2c1CCNC2,-0.45
12,CCOc1cc(=O)n2c(c1C(=O)OCc1ccc(C)cc1)CCCC2,24.4
13,CN1CCCC(c2n[nH]c3ncccc23)C1 (stereo not drawn),-11.4
14,O=c1cc(N2CCCCC2)cnn1CC(O)C(F)(F)F (stereo not drawn),-8.52
15,Cn1ccc(C(=O)N2CCCC2c2cc(CCO)[nH]n2)n1 (stereo not drawn),-1.26
16,COc1ccc(C(=O)CNC(=O)c2nc(Cl)sc2C(C)C)cc1,25
17,CNC(=O)[C@@]12CCC3(CCN(C(C)=O)CC3)[C@@H]1CN(S(C)(=O)=O)C2,-4.49
18,CCCN(CCn1c(=O)oc2ccccc21)CC1CC1,1.08
19,CCc1nc(C2CCCN(C(=O)c3ccc(Cl)cc3)C2)no1 (stereo not drawn),5.79
20,O=C(NCc1cccnc1-n1cccn1)C1CC(=O)N(CC2CC2)C1 (stereo not drawn),-13.2
21,Cc1ccc(S(=O)(=O)c2ncccc2CN2CCCC2)cc1,-22.8
22,COCCN1CCN(CC(O)c2ccc(C(F)(F)F)cc2)CC1 (stereo not drawn),-7.3
23,COc1cccc2c1OCC(C(=O)N(C)CCCc1cnn(C)c1)C2 (stereo not drawn),-1.77

row,Structure (SMILES),cytotoxicity at 70.5 h [%]
1,NC1(CN2CCCCC2)CCCCC1,-3.49
2,Cc1cc(C)c2cc(CNCc3ccccc3)c3nn(C)c(=O)n3c2c1,3.71
3,CNC(=O)c1cnc(/C=C/c2cc(OC)cc(OC)c2)s1,17.6
4,O=C(NCCCN1CCN(c2ncccn2)CC1)NCC1CCOC1 (stereo not drawn),3.56
5,CC1Cc2ccccc2N1Cc1occc1C(=O)OCC(N)=O (stereo not drawn),2.01
6,Fc1ccc(CC2CCN(Cc3nccs3)CC2)cc1,-7.34
7,O=C(CCc1ccco1)Nc1cc(C(F)(F)F)c[nH]c1=O,-8.18
8,CCN(Cc1ccc2c(c1)OCCO2)C(=O)NC(C)Cn1cccn1 (stereo not drawn),0.788
9,Cc1cc(C)c(CNC(=O)N(C)Cc2cccc(C#N)c2)c(=O)[nH]1,-1.75
10,COC(=O)CCc1c(C)nn(-c2nc(C)cc(=O)[nH]2)c1C,36.4
11,O=C(NC[C@H]1OC[C@@H](NC2COC2)[C@@H]1O)c1cccs1,-15.7
12,CC(C)CCN1C(=O)c2ccc(C(=O)NCCc3c[nH]cn3)cc2C1=O,-4.63
13,CNS(=O)(=O)c1ccc(CNC(=O)N(C)CC(C)C)cc1,-94.7
14,CCc1nnc2n1CCN(C(=O)c1cc3cc(F)ccc3[nH]1)C2,0.76
15,CCc1nc(NCCc2c(C)nn(CC)c2C)c2cnn(C)c2n1,-9.28
16,Cc1ccnc(OC[C@]23COC[C@H]2CN(C(=O)c2cnccn2)C3)n1,14.9
17,NC(=O)c1cn[nH]c1C1CCCN1C(=O)c1ccccc1 (stereo not drawn),-5.37
18,Cc1ccc(C(=O)N2CCO[C@H]3[C@H](OCC4CCOCC4)CC[C@@H]32)o1,11.2
19,Cc1cc(C(=O)N2CCOCC2c2nc(C)c[nH]2)nc(O)n1 (stereo not drawn),3.31
20,O=C(c1cnc2ccccc2c1)N1CCC2(CCN2c2ncccn2)C1 (stereo not drawn),2.76
21,Cc1cnn(CCC(=O)N2CCCC(c3nc(C)no3)C2)c1 (stereo not drawn),37.7
22,CCc1nnc(Nc2cccc(C3CCN(CCO)CC3)n2)s1,7.17
23,Cn1cccc1C(=O)N1CC[C@@H]2[C@@H]1CC(=O)N2CCN1CCOCC1,-4.61

row,Structure (SMILES),cytotoxicity at 70.5 h [%]
1,Cc1c(F)cc(C(=O)O)cc1S(=O)(=O)Nc1ccc2c(c1)OCCO2,-2.52
2,Cc1cccc(CN2CCC3(CC(C(=O)NCC(C)C)=NO3)C2)c1 (stereo not drawn),-5.06
3,Cc1cc(N2CCC(NCCOc3ccccc3)CC2)nc(C)n1,3.15
4,O=C(O)CN1CCC2(CCc3ccccc32)CC1,13.9
5,CN1CCCC1CNC(=O)CCCOCc1ccccc1 (stereo not drawn),-3.14
6,CC(C)N1CCC(c2nccnc2Nc2ncccn2)CC1,-4.91
7,COCC1CC2(CCN(S(=O)(=O)C3CC3)CC2)CN1c1ncccn1 (stereo not drawn),14.2
8,Cn1ccnc1CN1CCCC(CCc2ccc(F)c(F)c2)C1 (stereo not drawn),-1.61
9,CCN(C)C[C@@H]1CN(C(=O)c2cc(-c3ccc(F)cc3)n[nH]2)C[C@@H]1CO,-4.68
10,Cc1ccc(CN2CCCn3c(nc(Cn4ccnc4)cc3=O)C2)s1,8.11
11,CC(C)(C)n1ncc2c1NC(=O)CC2c1c(F)cccc1F (stereo not drawn),-14.5
12,CC[C@@H](CO)NC(=O)c1coc(COc2ccc3sc(C)nc3c2)n1,-12.1
13,COc1c(C2CCCN2Cc2noc(C)n2)c(C)nn1C (stereo not drawn),44.7
14,Cc1ccc(N2CCCC(NC(=O)Cc3csc(C)n3)C2=O)cc1 (stereo not drawn),-0.932
15,CS(=O)(=O)c1ccc(NC(=O)CSC(F)(F)F)cn1,20.8
16,OC1(CN2CCCC2)CCCN(Cc2cnc(-c3ccccc3)nc2)C1 (stereo not drawn),31.4
17,O=C(Nc1ccccc1)C1CN(Cc2nccs2)CC12CCOCC2 (stereo not drawn),10
18,Cc1ccc(CN2CCC3(CCCN3S(C)(=O)=O)CC2)s1,-11.8
19,COc1ccc(N2CCN(C[C@@H](C)CO)CC2=O)cc1,-4.04
20,Cc1oc(-c2ccco2)nc1CC(=O)N1CCN(CC(C)(C)O)CC1,-17.8
21,Cc1nn(C)c(Cl)c1S(=O)(=O)N(C)C,1.44
22,O=C(Nc1ccccc1OC1CCOC1)c1ccon1 (stereo not drawn),-1.12
23,COc1cc(N2C[C@H]3CN(C(=O)c4cnccn4)C[C@H]3C2)ncn1,-2.87

row,Structure (SMILES),cytotoxicity at 70.5 h [%]
1,COCCCC(=O)N1CC(=O)Nc2cc(Br)ccc21,-3.54
2,Cc1cccc(OCCC(=O)N(C)CC(C)C#N)c1C (stereo not drawn),19.7
3,CN(C(=O)C1CCCCC1)[C@@H]1CCC[C@@H](N2CCOCC2)[C@@H]1O,-11.9
4,O=S(=O)(c1cccc(Cl)c1)N1C[C@@H]2CCN[C@@H]2C1,-0.439
5,COCc1noc(-c2cc(Cl)c3c(c2)OCCCO3)n1,-8.58
6,CCN(Cc1nc(COC)no1)C[C@]1(O)CCCN2CCCC[C@@H]21,-10.1
7,CCCS(=O)(=O)N1CCC(n2nc(-c3cc(C)oc3C)ccc2=O)CC1,8.97
8,CNc1nc(CNC(=O)Nc2cccc(CC(F)(F)F)c2)cs1,-4.82
9,CCSCCNC(=O)c1ccc(S(=O)(=O)N2C[C@@H]3C[C@H]2CN3)cc1,-4.95
10,CCC(CN1CCCC1)NC(=O)Cc1c(C)[nH]c2cc(C)cc(C)c12 (stereo not drawn),-4.71
11,CC(C)CN1CCCn2nc(CNC(=O)Cc3cccc(O)c3)cc2C1,-9.37
12,CC(C)(NCc1cccc(O)c1)c1ccc2c(c1)OCO2,-11.8
13,CN(C)Cc1ccnc(C2CN(Cc3nccs3)CCO2)n1 (stereo not drawn),1.69
14,CCn1cc(CNc2ccc3nccnc3c2)cn1,7.17
15,CCOc1cc(/C=C/c2ncc(C(=O)O)s2)cc(Br)c1O,-11.1
16,Cc1cncc(NC(=O)c2ccc(CN3CCCC(C(N)=O)C3)cc2)c1 (stereo not drawn),-0.673
17,O=C(NCC1(CO)CC1)c1cccc2ccccc12,2.2
18,O=C(N[C@@H]1CNCCC[C@H]1O)c1ccc(OCCN2CCOCC2)cc1,1.5
19,CCOC1CC2(CCN(c3cnccn3)CC2)c2ccccc21 (stereo not drawn),-4.37
20,O=C(CSc1ccccc1)N1C[C@H]2CC[C@@H]1CN(Cc1ccncc1)C2,-4.9
21,Cc1cc(NC(=O)CN2CCOC(Cn3cccn3)C2)n(C)n1 (stereo not drawn),8.66
22,Cc1nc(CCN(C)C(=O)CN2C(=O)OC[C@@H]2c2ccccc2)no1,-4.02
23,CCOc1ccccc1CNCC1CCN(CC(C)O)CC1 (stereo not drawn),-1.15

row,Structure (SMILES),cytotoxicity at 70.5 h [%]
1,O=C(N[C@@H]1CCNC[C@H]1O)c1ccc(F)c(F)c1,-5.14
2,CC(C)(C)c1cnc(CN2CCC(NC(=O)NC3CCCCC3)CC2)o1,1.07
3,Cc1ccc(Cl)cc1-n1nnnc1C1(N2CCCC2)CCCC1,-11.5
4,O=C(CCc1ccc(-n2cnnn2)cc1)Nc1ccncc1,-7.21
5,CC(C)Cc1nc(CS(=O)(=O)C(C)C(=O)N2CCOCC2)no1 (stereo not drawn),-7.75
6,CC(C)c1nn(C)c(N(C)C)c1CNCc1cccnc1,-1.06
7,CC1CCN(Cc2cc(=O)[nH]c(=O)[nH]2)CC1,8.26
8,CC(=O)NCC1CCC2(CCN(c3ncc(C)cn3)CC2)O1 (stereo not drawn),-3.04
9,CC(C)n1c(=O)nc2n1C(=O)N(c1ccccc1)C2,-5.73
10,c1cc(CNc2cnc(C3CCCN3)cn2)ccn1 (stereo not drawn),-1.63
11,Cc1cc(C(=O)N2CCCC2c2nnc3n2CCCCC3)no1 (stereo not drawn),-7.37
12,c1n[nH]cc1CCCN1CCC(OC2CCCCC2)CC1,0.00847
13,CC(C)Nc1ncccc1C(=O)NC1CC(=O)N(CC(F)(F)F)C1 (stereo not drawn),-2.71
14,CC(C)Nc1cccc(CNC(=O)N2CCC(N3CC=CC3)C2)c1 (stereo not drawn),30.6
15,CS(=O)(=O)NCc1cncc2c1CCN(C(=O)c1ccccn1)C2,-12.5
16,O=C(Nc1ccccc1)C1CN(Cc2ccsc2)CC12CCOCC2 (stereo not drawn),-18.9
17,Cc1cc(C)c(C(=O)NCCNc2ncnc3ccccc23)c(=O)[nH]1,-2.04
18,Cc1nnc(CN2C[C@H](NC(=O)C3CCOCC3)[C@@H](C(C)C)C2)s1,-6.56
19,COc1cccc2c1OCCCN(c1nc3c(c(=O)[nH]1)CCNCC3)C2,-3.8
20,COc1cc(CNCCNC(=O)c2ccc(O)cc2)ccc1SC,55.5
21,CCCn1nnnc1COc1ccc(C(=O)OC)cc1OC,-16.9
